The source of these data is patent US10501455B2, “Inhibitors of leukotriene A4 hydrolase” (Celtaxsys, Inc., priority 2013, dated 2019).

SMILES strings stand for the structures.

Experiment [1] has as its target T1, LTA4-h (Homo sapiens, UniProt P09960).
T1 sequence (P09960 1-611): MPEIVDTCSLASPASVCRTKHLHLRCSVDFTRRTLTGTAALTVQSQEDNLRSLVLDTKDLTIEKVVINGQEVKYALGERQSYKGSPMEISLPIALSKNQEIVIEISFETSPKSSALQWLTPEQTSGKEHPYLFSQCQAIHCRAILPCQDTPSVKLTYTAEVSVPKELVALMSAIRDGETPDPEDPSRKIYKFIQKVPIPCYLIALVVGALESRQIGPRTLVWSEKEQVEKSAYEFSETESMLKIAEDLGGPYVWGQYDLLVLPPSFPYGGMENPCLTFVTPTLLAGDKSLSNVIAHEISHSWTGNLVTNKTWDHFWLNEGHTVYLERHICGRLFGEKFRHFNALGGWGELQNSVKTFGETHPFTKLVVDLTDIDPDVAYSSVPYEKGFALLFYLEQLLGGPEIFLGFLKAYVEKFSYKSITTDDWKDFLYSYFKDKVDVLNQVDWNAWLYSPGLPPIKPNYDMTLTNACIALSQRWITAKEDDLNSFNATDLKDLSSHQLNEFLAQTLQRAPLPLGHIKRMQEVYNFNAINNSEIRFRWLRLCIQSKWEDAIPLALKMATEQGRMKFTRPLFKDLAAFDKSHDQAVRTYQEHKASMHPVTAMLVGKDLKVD
The experiment can be described thus: Peptidase (aminopeptidase) assay. Type of experiment: biochemical. The note with it: for inhibition at 3 µM: read-out: Peptidase % inhibition. The procedure: Since LTA4-h hydrolase is grouped with the M1 family of zinc metalloproteases (see, Rudberg, P. C. et al., J. Biol. […] The whole blood and aminopeptidase assays were performed as described in Penning et al., J. Med.

Experiment [2] addresses T1, LTA4-h. The experiment can be described thus: Hydrolase assay (hydrolase-homogeneous time resolved fluorescence, LTB4 produced). The format is biochemical. The text has this:
The compounds of the invention can be tested for their ability to inhibit LTA4-h by various known assays and by assays described herein. For example, the compounds can be tested for their ability to inhibit LTA4-h activity by assaying the compounds in the hydrolase-homogeneous time resolved fluoroescence assay. This assay, which is a two-step assay, measures the hydrolysis of […] to LTB4 by analyzing the amount of LTB4 produced. The first step involves the enzymatic conversion of […] to LTB4 and the second step involves the quantification of the […] with a homogeneous time resolved fluoroescence assay.
(§1) The whole blood and aminopeptidase assays were performed as described in Penning et al., J. Med. Chem. 2000, 43, 721-735, and Rudberg et al., J. Biol. Chem. Vol. 279, No. 26, Issue of June 25, pp. 27376-27382, 2004, the contents of each of which are expressly incorporated by reference herein. The hydrolase assay was performed as described in U.S. Pat. No. 7,737,145, the contents of which are expressly incorporated herein.

For a further experiment, the target named is T2, LTA4-h hydrolase (Homo sapiens, UniProt P09960).
T2 construct: endogenous in cells; host or cells: whole blood
T2 sequence (P09960 1-611): T1 sequence (P09960 1-611)
Kind of experiment: Whole blood assay (WBA). Type of experiment: cell-based. The procedure: as §1, with “Compounds of the invention can also be tested for their ability as inhibitors of LTA4-h hydrolase in the whole blood assay using human, mouse, rat or dog whole blood (see Penning, T. D. et al., J. Med. Chem. (2000), 43(4): 721-735 for a description of a human whole blood assay and a mouse whole blood assay, the contents of which are expressly incorporated herein). […] The whole” for “The whole”

One may read the IC50 as the point on the concentration scale where inhibition reaches its midpoint. `Clc1ccc(Oc2ccc(NCC3CCNC3)cc2)cc1` (stereo not shown) [Compound 1]: the IC50 at LTA4-h [1] turned out to be 45 nM; against LTA4-h [2], 26 nM; on LTA4-h hydrolase it was 510 nM.

With `Clc1ccc(Oc2ccc(NCC3CCCCN3)cc2)cc1` (stereo not shown) [Compound 2], the values for the IC50 on LTA4-h [1], on LTA4-h [2] and on LTA4-h hydrolase were 72 nM, 190 nM and 880 nM, respectively.

In the case of `O=C(O)c1ccc(CN2CCC(CN(Cc3ccc(C(=O)O)cc3)c3ccc(Oc4ccc(Cl)cc4)cc3)C2)cc1` (stereo not shown) [Compound 3], the IC50 at LTA4-h [1] was 88 nM; on LTA4-h [2], 300 nM; on LTA4-h hydrolase it was above 3000 nM.

For the molecule `Clc1ccc(Oc2ccc(NCC3CNC3)cc2)cc1` [Compound 4], the IC50 on LTA4-h [1] came to 1.7 nM; on LTA4-h [2], 7.9 nM; at LTA4-h hydrolase, 90 nM.

Regarding `Clc1ccc(Oc2ccc(NC3CNC3)cc2)cc1` [Compound 5], the IC50 came to 31 nM at LTA4-h [1], 300 nM against LTA4-h [2] and 920 nM at LTA4-h hydrolase.

On to `Clc1ccc(Oc2ccc(NC3CC4CCC(C3)N4)cc2)cc1` (stereo not shown) [Compound 6], for which the IC50 came out at 160 nM on LTA4-h [1], 360 nM at LTA4-h [2] and 1900 nM on LTA4-h hydrolase.

As to `O=C(O)c1ccc(CN2CC(Nc3ccc(Oc4ccc(Cl)cc4)cc3)C2)cc1` [Compound 7], the IC50 at LTA4-h [1] worked out at 4 nM; at LTA4-h [2], 5 nM; at LTA4-h hydrolase, 57 nM.

As usually defined, the inhibition is the share of the control response that was lost under treatment. With `COC(=O)c1ccc(CN(CC2CCN(C(=O)OC(C)(C)C)C2)c2ccc(Oc3ccc(Cl)cc3)cc2)cc1` (stereo not shown) [Compound 9], the inhibition at 3 µM on LTA4-h [1] (at 3 uM) was 56%.

In the case of `COC(=O)c1ccc(CN(CC2CCNC2)c2ccc(Oc3ccc(Cl)cc3)cc2)cc1` (stereo not shown) [Compound 10], the IC50 was 13 nM against LTA4-h [1], 22 nM on LTA4-h [2] and 260 nM against LTA4-h hydrolase.

For the molecule `O=C(O)c1ccc(CN(CC2CCNC2)c2ccc(Oc3ccc(Cl)cc3)cc2)cc1` (stereo not shown) [Compound 11], the values for the IC50 against LTA4-h [1], against LTA4-h [2] and at LTA4-h hydrolase were 140 nM, 70 nM and 670 nM, respectively.

As to `COC(=O)c1ccc(CN(CC2CCN(C)C2)c2ccc(Oc3ccc(Cl)cc3)cc2)cc1` (stereo not shown) [Compound 12], the IC50 turned out to be 150 nM against LTA4-h [1], 70 nM against LTA4-h [2] and 240 nM on LTA4-h hydrolase.

Consider `COC(=O)c1ccc(CN(CC2CCN(Cc3ccc(F)cc3)C2)c2ccc(Oc3ccc(Cl)cc3)cc2)cc1` (stereo not shown) [Compound 13], for which the IC50 against LTA4-h [1] stood at 100 nM; on LTA4-h hydrolase it was 2770 nM.

For the molecule `COC(=O)c1ccc(CN(CC2CCN(Cc3ccccc3)C2)c2ccc(Oc3ccc(Cl)cc3)cc2)cc1` (stereo not shown) [Compound 14], the IC50 against LTA4-h [1] was 200 nM.

Turning to `CN1CCC(CN(Cc2ccc(C(=O)O)cc2)c2ccc(Oc3ccc(Cl)cc3)cc2)C1` (stereo not shown) [Compound 15], the results for the IC50 against LTA4-h [1], against LTA4-h [2] and against LTA4-h hydrolase were 290 nM, 470 nM and 560 nM, respectively.

Regarding `O=C(O)c1ccc(CN(CC2CCN(Cc3ccc(F)cc3)C2)c2ccc(Oc3ccc(Cl)cc3)cc2)cc1` (stereo not shown) [Compound 16], the half-maximal inhibitory concentration (IC50) on LTA4-h [1] was found to be 1600 nM; at LTA4-h [2] it was 2200 nM.

`O=C(O)c1ccc(CN(CC2CCN(Cc3ccccc3)C2)c2ccc(Oc3ccc(Cl)cc3)cc2)cc1` (stereo not shown) [Compound 17] displayed an IC50 against LTA4-h [1] of 1500 nM. That is a single-digit micromolar value.

Turning to `CC(C)(C)OC(=O)N1CCC(CN(Cc2ccccc2)c2ccc(Oc3ccc(Cl)cc3)cc2)C1` (stereo not shown) [Compound 18], the inhibition at 3 µM at LTA4-h [1] (at 3 uM) was determined as 0%.

As for `CC(C)(C)OC(=O)N1CCC(CN(Cc2ccc(F)cc2)c2ccc(Oc3ccc(Cl)cc3)cc2)C1` (stereo not shown) [Compound 19], the inhibition at 3 µM at LTA4-h [1] (at 3 uM) stood at 47%.

Turning to `CN1CCC(CN(Cc2ccc(F)cc2)c2ccc(Oc3ccc(Cl)cc3)cc2)C1` (stereo not shown) [Compound 20], the IC50 against LTA4-h [1] came to 165 nM; against LTA4-h [2], 140 nM; against LTA4-h hydrolase, 950 nM.

As to `COC(=O)c1ccc(CN2CCC(CN(Cc3ccc(F)cc3)c3ccc(Oc4ccc(Cl)cc4)cc3)C2)cc1` (stereo not shown) [Compound 22], the inhibition at 3 µM at LTA4-h [1] (at 3 uM) came out at 59%.

Take `COC(=O)c1ccc(CN2CCC(CN(Cc3ccccc3)c3ccc(Oc4ccc(Cl)cc4)cc3)C2)cc1` (stereo not shown) [Compound 23]: the inhibition at 3 µM at LTA4-h [1] (at 3 uM) stood at 40%.

As to `O=C(O)c1ccc(CN2CCC(CN(Cc3ccc(F)cc3)c3ccc(Oc4ccc(Cl)cc4)cc3)C2)cc1` (stereo not shown) [Compound 24], the IC50 against LTA4-h [1] was determined as 530 nM; on LTA4-h [2] it was 870 nM.

As to `O=C(O)c1ccc(CN2CCC(CN(Cc3ccccc3)c3ccc(Oc4ccc(Cl)cc4)cc3)C2)cc1` (stereo not shown) [Compound 25], the IC50 at LTA4-h [1] amounted to 370 nM; at LTA4-h [2] it was 1550 nM; against LTA4-h hydrolase, 520 nM.

`COC(=O)c1ccc(CN(CC2CN(C(=O)OC(C)(C)C)C2)c2ccc(Oc3ccc(Cl)cc3)cc2)cc1` [Compound 26]: the inhibition at 3 µM at LTA4-h [1] (at 3 uM) was determined as 42%.

Consider `CC(C)(C)OC(=O)CN(CC1CCN(C(=O)OC(C)(C)C)C1)c1ccc(Oc2ccc(Cl)cc2)cc1` (stereo not shown) [Compound 27], for which the inhibition at 3 µM on LTA4-h [1] (at 3 uM) was 7%.

`COC(=O)c1ccc(CN(CC2CNC2)c2ccc(Oc3ccc(Cl)cc3)cc2)cc1` [Compound 28]: the concentration for half-maximal inhibition (IC50) at LTA4-h [1] is 46 nM; against LTA4-h [2], 170 nM; against LTA4-h hydrolase, 800 nM.

For the molecule `O=C(O)CN(CC1CCNC1)c1ccc(Oc2ccc(Cl)cc2)cc1` (stereo not shown) [Compound 29], the IC50 against LTA4-h [1] came out at 22 nM; at LTA4-h [2] it was 320 nM; against LTA4-h hydrolase it was 920 nM.

For the molecule `O=C(O)c1ccc(CN(CC2CNC2)c2ccc(Oc3ccc(Cl)cc3)cc2)cc1` [Compound 30], the IC50 was 240 nM against LTA4-h [1], 1000 nM at LTA4-h [2] and 1600 nM against LTA4-h hydrolase.

`COC(=O)c1cccc(CN(CC2CN(C(=O)OC(C)(C)C)C2)c2ccc(Oc3ccc(Cl)cc3)cc2)c1` [Compound 31] came in with an IC50 against LTA4-h [1] of 76 nM. The same molecule displayed an inhibition at 3 µM on LTA4-h [2] (at 3 uM) above 5%.

On to `CC(C)(C)OC(=O)N1CCC(CN(Cc2ccc(S(N)(=O)=O)cc2)c2ccc(Oc3ccc(Cl)cc3)cc2)C1` (stereo not shown) [Compound 32], for which the results for the IC50 at LTA4-h [1], on LTA4-h [2] and at LTA4-h hydrolase were 12 nM, 1300 nM and 2800 nM, respectively.

Take `COC(=O)c1cccc(CN(CC2CCN(C(=O)OC(C)(C)C)C2)c2ccc(Oc3ccc(Cl)cc3)cc2)c1` (stereo not shown) [Compound 33]: at LTA4-h [1] (at 3 uM), the inhibition at 3 µM amounted to 22%.

At LTA4-h [1], `COC(=O)c1cccc(CN(CC2CCNC2)c2ccc(Oc3ccc(Cl)cc3)cc2)c1` (stereo not shown) [Compound 34] had an IC50 of 62 nM.

Regarding `COC(=O)c1cccc(CN(CC2CNC2)c2ccc(Oc3ccc(Cl)cc3)cc2)c1` [Compound 35], the IC50 against LTA4-h [1] came to 33 nM.

For the molecule `O=C(O)c1cccc(CN(CC2CCNC2)c2ccc(Oc3ccc(Cl)cc3)cc2)c1` (stereo not shown) [Compound 36], the 50% inhibitory concentration (IC50) worked out at 60 nM against LTA4-h [1] and 12 nM against LTA4-h [2].

For `O=C(O)c1cccc(CN(CC2CNC2)c2ccc(Oc3ccc(Cl)cc3)cc2)c1` [Compound 37], the results for the IC50 on LTA4-h [1] and against LTA4-h [2] were 35 nM and 62 nM, respectively.

As for `NS(=O)(=O)c1ccc(CN(CC2CCNC2)c2ccc(Oc3ccc(Cl)cc3)cc2)cc1` (stereo not shown) [Compound 38], the IC50 against LTA4-h [1] amounted to 26 nM; on LTA4-h [2] it was 12 nM.

Turning to `CC(C)(C)OC(=O)N1CCC(CN(Cc2ccc([N+](=O)[O-])cc2)c2ccc(Oc3ccc(Cl)cc3)cc2)C1` (stereo not shown) [Compound 39], the inhibition at 3 µM at LTA4-h [1] is 19%.

For the molecule `COC(=O)c1coc(CN(CC2CCNC2)c2ccc(Oc3ccc(Cl)cc3)cc2)n1` (stereo not shown) [Compound 40], 125 nM corresponded to half-maximal inhibition on LTA4-h [1] (IC50).

As to `Clc1ccc(Oc2ccc(NC[C@@H]3CCCN3)cc2)cc1` [Compound 42], half-maximal inhibition at LTA4-h [1] (IC50) was put at 70 nM.

The molecule `CC(C)(C)OC(=O)N1CCC[C@H]1CN(Cc1ccc(S(N)(=O)=O)cc1)c1ccc(Oc2ccc(Cl)cc2)cc1` [Compound 43] came in with an inhibition at 1 µM against LTA4-h [1] (at 1 uM) of 0%.

On to `NS(=O)(=O)c1ccc(CN(C[C@@H]2CCCN2)c2ccc(Oc3ccc(Cl)cc3)cc2)cc1` [Compound 44], for which the IC50 against LTA4-h [1] stood at 110 nM.
